In PMC10301603, “Potent and Selective Benzothiazole-Based Antimitotics with Improved Water Solubility: Design, Synthesis, and Evaluation as Novel Anticancer Agents” (Pharmaceutics, 2023):
In brackets after ≈: the same amount, converted by molar mass.

Test system: not listed separately
Experiment: Aqueous solubility, shake-flask method
Assay type: physicochemical
Settings: pH 7.0 buffer, pH 7, aqueous buffer, thermodynamic from solid, shaking flask, buffered media at pH 7.0, mean of three
Experimental: The aqueous solubility of compounds was measured in a Helios Alfa Spectrophotometer. Calibration lines at the maximum wavelength of absorbance were determined for each compound. Then, following the shake-flask method, a suspension of 5 mg of each compound in 500 µL in pH 7.0 buffer was stirred for 72 h at room temperature. The mixture was then filtrated over a […] filter to remove the insoluble fraction. The concentration of the compound in the resulting saturated solution was determined via UV absorbance measurement and interpolation in the calibration line. The aqueous solubility values are given as the average of three independent measurements.

Compound | solubility at 72 h [µg/mL]
COc1ccc2nc(N(Cc3[nH]cnc3C)C(C)=O)sc2c1 [Compound 22, N-(6-methoxybenzo[d]thiazol-2-yl)-N-((4-methyl-1H-imidazol-5-yl)methyl)acetamide] | 171 (≈ 540 µM)
COc1ccc2nc(N(C=O)Cc3ccccc3)sc2c1 [Compound 17, N-benzyl-N-(6-methoxybenzo[d]thiazol-2-yl)formamide] | 12 (≈ 40.2 µM)

Test system: HT-29 cells
Experiment: Cell growth inhibition assay (MTT)
Assay type: cell-based, human
Settings: Homo sapiens, HT-29, 72 h after drug exposure
Experimental: (§1) The cell lines were obtained from ATTC (Manassas, VA, USA). HeLa (human cervix epithelioid carcinoma), MCF7 (human breast adenocarcinoma), HepG2 (human hepatocellular carcinoma), U87 MG (human glioblastoma), T98G (human glioblastoma), GL261 (murine glioma), LNCaP (human prostate cancer), PC-3 (human prostate cancer), and HEK-293 (human embryonic kidney) were grown in Dulbecco’s modified Eagle’s medium (DMEM, Gibco, Waltham, MA, USA), supplemented with 10% (v/v) heat-inactivated fetal bovine serum (HIFBS, Sigma-Aldrich, St. Louis, MO, USA)), 2 mM L-glutamine, 100 μg/mL streptomycin, and 100 units/mL penicillin (Gibco, Waltham, MA, USA) at 37 °C in saturated humidity atmosphere containing 95% air and 5% CO2. Cell line HT-29 (human colon carcinoma) was grown in Roswell Park Memorial Institute (RPMI) 1640 medium (Gibco, Whaltman, MA, USA) supplemented with 10% HIFBS, 100 μg/mL streptomycin, and 100 units/mL penicillin (Gibco, Whaltman, MA, USA) at 37 °C in humidified 95% air and 5% CO2 atmosphere. MycoAlert kit (Lonza, Norwest, Australia) was used to routinely check the presence of mycoplasma, and only mycoplasma-free cells were employed in the experiments.
(§2) Cells were plated in 96-well plates (100 µL/well) at the following concentrations: 30,000 cells/mL (HepG2, U87 MG, T98G, C6, LNCaP, PC3, and HT-29 cells) or 15,000 cells/mL (HeLa and MCF-7 cells). Previous experiments were performed to choose the optimal cell concentration (70–80% confluence) and avoid the formation of cell aggregates. Cells were incubated in complete DMEM or RPMI 1640 medium (see above) at 37 °C and 5% CO2 atmosphere for 24 h to allow for cell attachment to the plate. Then, every compound was added (10 µL/well) to a final concentration of 10 µM. Non-treated cells were used as negative controls. The antiproliferative activity of compounds was measured 72 h after the treatments using the MTT reagent (3-[4,5-dimethylthiazol-2-yl]-2,5-diphenyltetrazolium bromide), (MTT Thiazolyl Blue Tetrazolium Bromide, Sigma-Aldrich, St. Louis, MO, USA) dissolved in PBS at 5 mg/mL. Compounds showing antiproliferative effects at 10 µM were selected to determine their IC50 value. For that purpose, compounds were used at different concentrations ranging from 10^−10 to 10^−2 M. Measurements were performed in triplicate, and each experiment was repeated three times. The IC50 value was determined for every compound using Origin software (OriginLab, Washington, USA). To study the sensitivity to MDR efflux pumps of compounds, the IC50 values were determined by following the same procedure but in the presence of verapamil (final concentration of 10 µM).

Compound | IC50 [µM]
COc1ccc2nc(N(Cc3[nH]cnc3C)C(C)=O)sc2c1 [Compound 22, N-(6-methoxybenzo[d]thiazol-2-yl)-N-((4-methyl-1H-imidazol-5-yl)methyl)acetamide] | > 10
COc1ccc2nc(N(C=O)Cc3ccccc3)sc2c1 [Compound 17, N-benzyl-N-(6-methoxybenzo[d]thiazol-2-yl)formamide] | > 10

Test system: HeLa cells
Experiment: Cell growth inhibition assay (MTT)
Assay type: cell-based, human
Settings: Homo sapiens, HeLa, 72 h after drug exposure
Experimental: as §1, §2

Compound | IC50 [µM]
COc1ccc2nc(N(Cc3[nH]cnc3C)C(C)=O)sc2c1 [Compound 22, N-(6-methoxybenzo[d]thiazol-2-yl)-N-((4-methyl-1H-imidazol-5-yl)methyl)acetamide] | > 10
COc1ccc2nc(N(C=O)Cc3ccccc3)sc2c1 [Compound 17, N-benzyl-N-(6-methoxybenzo[d]thiazol-2-yl)formamide] | 3.4

Test system: HepG2 cells
Experiment: Cell growth inhibition assay (MTT)
Assay type: cell-based, human
Settings: Homo sapiens, HepG2, 72 h after drug exposure
Experimental: as §1, §2

Compound | IC50 [µM]
COc1ccc2nc(N(Cc3[nH]cnc3C)C(C)=O)sc2c1 [Compound 22, N-(6-methoxybenzo[d]thiazol-2-yl)-N-((4-methyl-1H-imidazol-5-yl)methyl)acetamide] | > 10
COc1ccc2nc(N(C=O)Cc3ccccc3)sc2c1 [Compound 17, N-benzyl-N-(6-methoxybenzo[d]thiazol-2-yl)formamide] | 5.55

Test system: LNCaP cells
Experiment: Cell growth inhibition assay (MTT)
Assay type: cell-based, human
Settings: Homo sapiens, LNCaP, 72 h after drug exposure
Experimental: as §1, §2

Compound | IC50 [µM]
COc1ccc2nc(N(Cc3[nH]cnc3C)C(C)=O)sc2c1 [Compound 22, N-(6-methoxybenzo[d]thiazol-2-yl)-N-((4-methyl-1H-imidazol-5-yl)methyl)acetamide] | > 10
COc1ccc2nc(N(C=O)Cc3ccccc3)sc2c1 [Compound 17, N-benzyl-N-(6-methoxybenzo[d]thiazol-2-yl)formamide] | 4.01

Test system: MCF7 cells
Experiment: Cell growth inhibition assay (MTT)
Assay type: cell-based, human
Settings: Homo sapiens, MCF7; MTT, 72 h after drug exposure
Experimental: as §1, §2

Compound | IC50 [µM]
COc1ccc2nc(N(Cc3[nH]cnc3C)C(C)=O)sc2c1 [Compound 22, N-(6-methoxybenzo[d]thiazol-2-yl)-N-((4-methyl-1H-imidazol-5-yl)methyl)acetamide] | > 10
COc1ccc2nc(N(C=O)Cc3ccccc3)sc2c1 [Compound 17, N-benzyl-N-(6-methoxybenzo[d]thiazol-2-yl)formamide] | 5.02

Test system: PC-3 cells
Experiment: Cell growth inhibition assay (MTT)
Assay type: cell-based, human
Settings: Homo sapiens, PC-3, 72 h after drug exposure
Experimental: as §1, §2

Compound | IC50 [µM]
COc1ccc2nc(N(Cc3[nH]cnc3C)C(C)=O)sc2c1 [Compound 22, N-(6-methoxybenzo[d]thiazol-2-yl)-N-((4-methyl-1H-imidazol-5-yl)methyl)acetamide] | > 10
COc1ccc2nc(N(C=O)Cc3ccccc3)sc2c1 [Compound 17, N-benzyl-N-(6-methoxybenzo[d]thiazol-2-yl)formamide] | > 10

Test system: T98G cells
Experiment: Cell growth inhibition assay (MTT)
Assay type: cell-based, human
Settings: Homo sapiens, T98G, 72 h after drug exposure
Experimental: as §1, §2

Compound | IC50 [µM]
COc1ccc2nc(N(Cc3[nH]cnc3C)C(C)=O)sc2c1 [Compound 22, N-(6-methoxybenzo[d]thiazol-2-yl)-N-((4-methyl-1H-imidazol-5-yl)methyl)acetamide] | > 10
COc1ccc2nc(N(C=O)Cc3ccccc3)sc2c1 [Compound 17, N-benzyl-N-(6-methoxybenzo[d]thiazol-2-yl)formamide] | > 10

Test system: U87MG cells
Experiment: Cell growth inhibition assay (MTT)
Assay type: cell-based, human
Settings: Homo sapiens, U-87 MG; MTT, 72 h after drug exposure
Experimental: as §1, §2

Compound | IC50 [µM]
COc1ccc2nc(N(Cc3[nH]cnc3C)C(C)=O)sc2c1 [Compound 22, N-(6-methoxybenzo[d]thiazol-2-yl)-N-((4-methyl-1H-imidazol-5-yl)methyl)acetamide] | > 10
COc1ccc2nc(N(C=O)Cc3ccccc3)sc2c1 [Compound 17, N-benzyl-N-(6-methoxybenzo[d]thiazol-2-yl)formamide] | 5.27

Test system: GL261 cells
Experiment: Cell growth inhibition assay (MTT)
Assay type: cell-based, murine
Settings: Mus musculus, GL261, 72 h after drug exposure
Experimental: as §1, §2

Compound | IC50 [µM]
COc1ccc2nc(N(Cc3[nH]cnc3C)C(C)=O)sc2c1 [Compound 22, N-(6-methoxybenzo[d]thiazol-2-yl)-N-((4-methyl-1H-imidazol-5-yl)methyl)acetamide] | > 10
COc1ccc2nc(N(C=O)Cc3ccccc3)sc2c1 [Compound 17, N-benzyl-N-(6-methoxybenzo[d]thiazol-2-yl)formamide] | 6.41

Test system: HEK-293 cells
Experiment: Cell growth inhibition assay (MTT), non-tumorigenic cells
Assay type: cell-based, human
Settings: Homo sapiens, HEK293, 72 h after drug exposure, non-tumorigenic cell line
Experimental: as §1, §2

Compound | IC50 [µM]
COc1ccc2nc(N(Cc3[nH]cnc3C)C(C)=O)sc2c1 [Compound 22, N-(6-methoxybenzo[d]thiazol-2-yl)-N-((4-methyl-1H-imidazol-5-yl)methyl)acetamide] | > 10
COc1ccc2nc(N(C=O)Cc3ccccc3)sc2c1 [Compound 17, N-benzyl-N-(6-methoxybenzo[d]thiazol-2-yl)formamide] | > 10

Test system: HT-29 cells
Experiment: Cell growth inhibition (MTT) in the presence of 10 µM verapamil (sensitivity to MDR efflux pumps)
Assay type: cell-based, human
Settings: 10 µM verapamil (P-gp/MDR1 inhibitor)
Experimental: as §2

Compound | IC50 [µM]
COc1ccc2nc(N(Cc3[nH]cnc3C)C(C)=O)sc2c1 [Compound 22, N-(6-methoxybenzo[d]thiazol-2-yl)-N-((4-methyl-1H-imidazol-5-yl)methyl)acetamide] | > 10
COc1ccc2nc(N(C=O)Cc3ccccc3)sc2c1 [Compound 17, N-benzyl-N-(6-methoxybenzo[d]thiazol-2-yl)formamide] | > 10

Test system: bovine brain tubulin
Experiment: Tubulin polymerization inhibition (turbidimetry)
Assay type: biochemical
Settings: 10 µM
Experimental: Microtubular protein was isolated from calf brain following the modified Shelanski method, based on temperature-dependent assembly/disassembly of tubulin [45]. The protein was stored at −80 °C, and its concentration was determined using the Bradford method before each use. Tubulin polymerization, which occurs when heating a buffered tubulin sample from 4 °C to 37 °C, is accompanied by an increase in the absorbance (at 450 nm) of the sample that was monitored by a Helios α spectrophotometer. […] Then, the temperature was adjusted to 4 °C, and the temperature being shifted to 37 °C allowed for the assembly process of tubulin. The turbidity caused by tubulin polymerization was measured by the increased absorbance at 450 nm. The increase in absorbance obtained for the control sample (without the ligand), which we considered to be 100% tubulin polymerization (0% inhibition), compared with the increase in absorbance determined for the sample containing ligands yielded the degree of tubulin polymerization inhibition (TPI), which is expressed as a percentage value. For the compounds displaying TPI values over 50% at 10 µM, the IC50 value for TPI was calculated. Measurements were performed in triplicate in two independent experiments using microtubular protein from different preparations.

Compound | Tubulin polymerization inhibition (in words)
COc1ccc2nc(N(Cc3[nH]cnc3C)C(C)=O)sc2c1 [Compound 22, N-(6-methoxybenzo[d]thiazol-2-yl)-N-((4-methyl-1H-imidazol-5-yl)methyl)acetamide] | not able to inhibit tubulin polymerization

Same assay, conditions: compounds tested at 10 µM, with respect to the negative control

Compound | % TPI [%]
COc1ccc2nc(N(Cc3[nH]cnc3C)C(C)=O)sc2c1 [Compound 22, N-(6-methoxybenzo[d]thiazol-2-yl)-N-((4-methyl-1H-imidazol-5-yl)methyl)acetamide] | 0
COc1ccc2nc(N(C=O)Cc3ccccc3)sc2c1 [Compound 17, N-benzyl-N-(6-methoxybenzo[d]thiazol-2-yl)formamide] | 4

Same assay, conditions: concentration inhibiting 50% of microtubular protein polymerization in vitro; read-out: TPI IC50

Compound | IC50 [µM]
COc1ccc2nc(N(Cc3[nH]cnc3C)C(C)=O)sc2c1 [Compound 22, N-(6-methoxybenzo[d]thiazol-2-yl)-N-((4-methyl-1H-imidazol-5-yl)methyl)acetamide] | > 10
COc1ccc2nc(N(C=O)Cc3ccccc3)sc2c1 [Compound 17, N-benzyl-N-(6-methoxybenzo[d]thiazol-2-yl)formamide] | > 10
